Data published in ChEMBL document CHEMBL1150336, “Synthesis and antibacterial activity of novel pyrido[1,2,3-de][1,4]benzoxazine-6-carboxylic acid derivatives carrying the 3-cyclopropylaminomethyl-4-substituted-1-pyrrolidinyl group as a C-10 substituent” (J Med Chem, 2008).
Converted amounts (≈) assume the structure as drawn.

Tests used:
Enterococcus faecalis [1] = assay: Antibacterial activity against Enterococcus faecalis IID682 after 18 hrs by agar dilution method; format: functional
Staphylococcus aureus [2] = assay: Antibacterial activity against Staphylococcus aureus Smith after 18 hrs by agar dilution method; format: functional
Escherichia coli = assay: Antibacterial activity against Escherichia coli NIHJ JC2 after 18 hrs by agar dilution method; format: functional; conditions: NIHJ JC2, 18 h
Enterococcus faecalis [3] = assay: Antibacterial activity against vancomycin-resistant Enterococcus faecalis KU1866 after 18 hrs by agar dilution method; format: functional
Klebsiella pneumoniae = assay: Antibacterial activity against Klebsiella pneumoniae IID5209 after 18 hrs by agar dilution method; format: functional
Enterococcus faecalis [4] = assay: Antibacterial activity against vancomycin-resistant Enterococcus faecalis KU1856 after 18 hrs by agar dilution method; format: functional
Staphylococcus aureus [5] = assay: Antibacterial activity against quinoline-resistant Staphylococcus aureus OITI MR1-1002 isolate after 18 hrs by agar dilution method; format: functional
Enterococcus faecalis [6] = assay: Antibacterial activity against quinoline-resistant Enterococcus faecalis No.15 isolate after 18 hrs by agar dilution method; format: functional
Streptococcus pneumoniae [7] = assay: Antibacterial activity against quinoline-resistant Streptococcus pneumoniae no.55 isolate after 18 hrs by agar dilution method; format: functional
Streptococcus pyogenes = assay: Antibacterial activity against Streptococcus pyogenes IID692 after 18 hrs by agar dilution method; format: functional
Haemophilus influenzae = assay: Antibacterial activity against Haemophilus influenzae IID983 after 18 hrs by agar dilution method; format: functional
Mus musculus [8] = assay: Toxicity in ICR mouse assessed as mortality administered as single dose at 200 mg/kg, iv after 7 days; format: organism-based; set-up: dose 200 mg/kg, route intravenous; conditions: in vivo, 168 h
Mus musculus [9] = assay: Toxicity in ICR mouse assessed as mortality administered as single dose at 100 mg/kg, iv after 7 days; format: organism-based; set-up: dose 100 mg/kg, route intravenous; conditions: in vivo, 168 h
Mus musculus [10] = assay: Toxicity in intracerebroventricularly dosed ICR mouse assessed as induction of convulsion after 2 hrs in presence of fenbufen; format: organism-based; conditions: in vivo, icv_or_intrathecal
Pseudomonas aeruginosa = assay: Antibacterial activity against Pseudomonas aeruginosa IID1210 after 18 hrs by agar dilution method; format: functional
Streptococcus pneumoniae [11] = assay: Antibacterial activity against Streptococcus pneumoniae type 3 after 18 hrs by agar dilution method; format: functional
Mus musculus [12] = assay: Toxicity in intracerebroventricularly dosed ICR mouse assessed as induction of convulsion after 2 hrs in absence of fenbufen; format: organism-based; conditions: in vivo, icv_or_intrathecal
Mus musculus [13] = assay: Phototoxicity in orally dosed ICR mouse assessed as skin erythema after 72 hrs; format: organism-based; conditions: in vivo, po
[14] = Inhibition of Staphylococcus aureus MS5935 wild type topoisomerase 4-mediated decatenation activity
Staphylococcus aureus [15] = assay: Antibacterial activity against quinoline-resistant Staphylococcus aureus MS5935 containing single grlA and single gyrA mutation after 18 hrs by agar dilution method; format: functional
Staphylococcus aureus [16] = assay: Antibacterial activity against quinoline-resistant wild type Staphylococcus aureus MS5935 after 18 hrs by agar dilution method; format: functional
Staphylococcus aureus [17] = assay: Antibacterial activity against quinoline-resistant Staphylococcus aureus MS5935 containing single grlA mutation after 18 hrs by agar dilution method; format: functional
Staphylococcus aureus [18] = assay: Antibacterial activity against quinoline-resistant Staphylococcus aureus MS5935 containing double grlA and double gyrA mutation after 18 hrs by agar dilution method; format: functional
[19] = Inhibition of quinoline-resistant Staphylococcus aureus MS5935 topoisomerase 4-mediated decatenation activity
Staphylococcus aureus [20] = assay: Antibacterial activity against quinoline-resistant Staphylococcus aureus MS5935 containing double grlA and single gyrA mutation after 18 hrs by agar dilution method; format: functional

SMILES | MIC (Enterococcus faecalis [1]) [µg/mL] | MIC (Staphylococcus aureus [2]) [µg/mL] | MIC (Escherichia coli) [µg/mL] | MIC (Enterococcus faecalis [3]) [µg/mL] | MIC (Klebsiella pneumoniae) [µg/mL] | MIC (Enterococcus faecalis [4]) [µg/mL] | MIC (Staphylococcus aureus [5]) [µg/mL] | MIC (Enterococcus faecalis [6]) [µg/mL] | MIC (Streptococcus pneumoniae [7]) [µg/mL] | MIC (Streptococcus pyogenes) [µg/mL] | MIC (Haemophilus influenzae) [µg/mL] | Activity (Mus musculus [9]) | Activity (Mus musculus [10]) [µg] | MIC (Pseudomonas aeruginosa) [µg/mL] | MIC (Streptococcus pneumoniae [11]) [µg/mL] | Activity (Mus musculus [12]) [µg] | also measured
O=C(O)c1cn(C2CC2)c2cc(N3CCNCC3)c(F)cc2c1=O [CIPROFLOXACIN] | 0.5 (≈ 1.51 µM) | 0.25 (≈ 0.754 µM) | ≤ 0.001 | 64 (≈ 193 µM) | 0.004 (≈ 0.0121 µM) | 64 (≈ 193 µM) | 64 (≈ 193 µM) | 64 (≈ 193 µM) | 64 (≈ 193 µM) | 0.5 (≈ 1.51 µM) | 0.008 (≈ 0.0241 µM) |  |  |  |  |  | 
C[C@H]1COc2c(N3CC[C@@H](CNC4CC4)C3)c(F)cc3c(=O)c(C(=O)O)cn1c23 | 0.063 (≈ 0.157 µM) | 0.008 (≈ 0.0199 µM) | 0.008 (≈ 0.0199 µM) | 0.5 (≈ 1.25 µM) | 0.063 (≈ 0.157 µM) | 0.5 (≈ 1.25 µM) | 2 (≈ 4.98 µM) | 1 (≈ 2.49 µM) | 0.25 (≈ 0.623 µM) | 0.016 (≈ 0.0399 µM) | 0.016 (≈ 0.0399 µM) | Non-toxic | 20 | 2 (≈ 4.98 µM) | 0.016 (≈ 0.0399 µM) | 20 | Activity (Mus musculus [8]): Toxic
O=C(O)c1cn2c3c(c(N4CC[C@@H](CNC5CC5)C4)c(F)cc3c1=O)OC[C@@H]2CF | 0.063 (≈ 0.15 µM) | 0.008 (≈ 0.0191 µM) | 0.004 (≈ 0.00954 µM) | 0.5 (≈ 1.19 µM) | 0.031 (≈ 0.0739 µM) | 0.5 (≈ 1.19 µM) | 2 (≈ 4.77 µM) | 1 (≈ 2.38 µM) | 0.25 (≈ 0.596 µM) | 0.031 (≈ 0.0739 µM) | 0.004 (≈ 0.00954 µM) | Non-toxic | 10 | 2 (≈ 4.77 µM) | 0.016 (≈ 0.0381 µM) | 10 | Activity (Mus musculus [13]): Non-toxic
O=C(O)c1cn2c3c(c(N4C[C@H](CNC5CC5)[C@@H](F)C4)c(F)cc3c1=O)OC[C@@H]2CF | 0.125 (≈ 0.286 µM) | 0.016 (≈ 0.0366 µM) | 0.031 (≈ 0.0709 µM) | 4 (≈ 9.14 µM) | 0.125 (≈ 0.286 µM) | 2 (≈ 4.57 µM) | 16 (≈ 36.6 µM) | 4 (≈ 9.14 µM) | 2 (≈ 4.57 µM) | 0.125 (≈ 0.286 µM) | 0.008 (≈ 0.0183 µM) |  |  | 4 (≈ 9.14 µM) | 0.063 (≈ 0.144 µM) |  | 
C[C@H]1COc2c(N3C[C@H](CNC4CC4)[C@@H](F)C3)c(F)cc3c(=O)c(C(=O)O)cn1c23 | 0.125 (≈ 0.298 µM) | 0.016 (≈ 0.0381 µM) | 0.016 (≈ 0.0381 µM) | 4 (≈ 9.54 µM) | 0.125 (≈ 0.298 µM) | 2 (≈ 4.77 µM) | 16 (≈ 38.1 µM) | 4 (≈ 9.54 µM) | 2 (≈ 4.77 µM) | 0.125 (≈ 0.298 µM) | 0.008 (≈ 0.0191 µM) |  |  | 4 (≈ 9.54 µM) | 0.063 (≈ 0.15 µM) |  | 
C[C@@H]1CN(c2c(F)cc3c(=O)c(C(=O)O)cn4c3c2OC[C@@H]4C)C[C@@H]1CNC1CC1 | 0.063 (≈ 0.152 µM) | 0.008 (≈ 0.0193 µM) | 0.016 (≈ 0.0385 µM) | 1 (≈ 2.41 µM) | 0.063 (≈ 0.152 µM) | 1 (≈ 2.41 µM) | 0.5 (≈ 1.2 µM) | 1 (≈ 2.41 µM) | 0.125 (≈ 0.301 µM) | 0.016 (≈ 0.0385 µM) | 0.004 (≈ 0.00963 µM) | Toxic | > 40 | 2 (≈ 4.81 µM) | 0.016 (≈ 0.0385 µM) | > 40 | 
C[C@H]1COc2c(N3CCN(C)CC3)c(F)cc3c(=O)c(C(=O)O)cn1c23.C[C@H]1COc2c(N3CCN(C)CC3)c(F)cc3c(=O)c(C(=O)O)cn1c23.O [LEVOFLOXACIN] | 1 | 0.125 | ≤ 0.001 | 32 | 0.016 | 32 | > 128 | 64 |  | 0.5 | 0.008 |  |  | 0.5 |  |  | IC50 [14]: 5.44 µg/mL; MIC (Staphylococcus aureus [15]): 8 µg/mL; MIC (Staphylococcus aureus [16]): 0.125 µg/mL; MIC (Staphylococcus aureus [17]): 0.5 µg/mL; MIC (Staphylococcus aureus [18]): > 128 µg/mL; IC50 [19]: 319 µg/mL; MIC (Staphylococcus aureus [20]): 32 µg/mL
